pIC50: −log10 of the molar value.

Experimental findings from patent US10183944B2 (Asana Biosciences, LLC, priority 2011, dated 2019) are described below.

The target of assay [1] is Syk (356-635 amino acids) catalytic domain (Homo sapiens (Human), UniProt P43405). Nature of the assay: Inhibition of enzymatic Syk kinase activity (radiometric). It counts as biochemical. Particulars: read-out: IC50 Syk. The procedure, abridged: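 Radiometric filter-binding format: 32P transfer from γ-32P-ATP onto pG4T, scintillation-counted after acid washes of P81 paper. Syk kinase domain (356-635), 0.035–7.5 ng per reaction, was exposed to compound for 30 minutes at room temperature before a 10-minute, 30° C. reaction with ATP (100 μM stock). Inhibition derived from counts with versus without compound.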

In a further assay the target is JAK2 (Homo sapiens (Human), UniProt O60674). Description: Inhibition of enzymatic JAK2 kinase activity (TR-FRET). It counts as biochemical. Particulars: read-out: IC50 JAK. The procedure, abridged: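 TR-FRET read-out (Eu antibody donor, Ulight poly Glu-Tyr acceptor, 665/615 nm ratio) after a 60 min RT kinase reaction with ATP, begun following 30 min compound–enzyme preincubation. Stopped by EDTA; inhibition expressed as 100 minus % activity of positive control.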
Background: TR-FRET usually uses a lanthanide donor and a delayed reading to cut background.

Chain of JAK2 (O60674 808-1132): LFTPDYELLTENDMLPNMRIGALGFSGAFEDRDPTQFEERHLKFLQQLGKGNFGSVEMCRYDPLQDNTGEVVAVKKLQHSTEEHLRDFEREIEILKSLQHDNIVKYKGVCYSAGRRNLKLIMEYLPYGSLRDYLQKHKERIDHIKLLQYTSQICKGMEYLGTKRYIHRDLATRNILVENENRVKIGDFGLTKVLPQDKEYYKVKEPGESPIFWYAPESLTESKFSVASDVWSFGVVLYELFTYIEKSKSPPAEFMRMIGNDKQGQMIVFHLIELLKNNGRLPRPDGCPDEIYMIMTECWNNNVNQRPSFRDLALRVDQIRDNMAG

`N#CCC1CCN(c2nc(Nc3ccc(N4CCCC(CCO)C4)cc3)c3c(=O)[nH]ncc3n2)CC1` (stereo not shown) [Example 286, 2-(1-(4-((4-(3-(2-hydroxyethyl)piperidin-1-yl)phenyl)amino)-5-oxo-5,6-dihydropyrimido[4,5-d]pyridazin-2-yl)piperidin-4-yl)acetonitrile]: the negative logarithm of the IC50 (pIC50) (in assay [1]; at JAK2) was above 7.30 throughout.
On to `COC1CCN(c2ccc(Nc3nc(N4CCCCCC4)nc4cn[nH]c(=O)c34)cc2)CC1` [Example 288, 2-(azepan-1-yl)-4-((4-(4-methoxypiperidin-1-yl)phenyl)amino) pyrimido[4,5-d]pyridazin-5(6H)-one], for which the pIC50 (in assay [1]; at JAK2) was above 7.30 in each case.
As for `O=c1[nH]ncc2nc(N3CCCCCC3)nc(Nc3ccc(N4CCC(F)CC4)cc3)c12` [Example 289, 2-(azepan-1-yl)-4-((4-(4-fluoropiperidin-1-yl)phenyl)amino)pyrimido[4,5-d]pyridazin-5(6H)-one], the values for the pIC50 (in assay [1]; on JAK2) were above 7.30 and above 8.00, respectively.
On the same counts, the results for `N#CCC1CCN(c2nc(Nc3ccc(OC4CCN(CCO)CC4)cc3)c3c(=O)[nH]ncc3n2)CC1` [Example 291, 2-(1-(4-((4-((1-(2-hydroxyethyl)piperidin-4-yl)oxy)phenyl)amino)-5-oxo-5,6-dihydropyrimido[4,5-d]pyridazin-2-yl)piperidin-4-yl)acetonitrile] are above 7.30 and above 7.30.
On the same counts, the results for `N#CCC1CCN(c2nc(Nc3ccc(OCCO)cc3)c3c(=O)[nH]ncc3n2)CC1` [Example 293, 2-(1-(4-((4-(2-hydroxyethoxy)phenyl)amino)-5-oxo-5,6-dihydropyrimido[4,5-d]pyridazin-2-yl)piperidin-4-yl) acetonitrile] are above 7.00 and above 7.30.
Consider `O=c1[nH]ncc2nc(N3CCCCCC3)nc(Nc3ccc(OCCO)cc3)c12` [Example 294, 2-(azepan-1-yl)-4-((4-(2-hydroxyethoxy)phenyl)amino)pyrimido[4,5-d]pyridazin-5(6H)-one], for which the pIC50 (in assay [1]; on JAK2) was above 7.30 throughout.
Regarding `N#CCC1CCN(c2nc(Nc3ccc(OCCCO)cc3)c3c(=O)[nH]ncc3n2)CC1` [Example 295, 2-(1-(4-((4-(3-hydroxypropoxy)phenyl)amino)-5-oxo-5,6-dihydropyrimido[4,5-d]pyridazin-2-yl)piperidin-4-yl) acetonitrile], the pIC50 (in assay [1]; on JAK2) was above 7.30 each time.
Regarding `N#CCC1CCN(c2nc(Nc3ccc(N4CCC(CCF)CC4)cc3)c3c(=O)[nH]ncc3n2)CC1` [Example 299, 2-(1-(4-((4-(4-(2-fluoroethyl)piperidin-1-yl)phenyl)amino)-5-oxo-5,6-dihydropyrimido[4,5-d]pyridazin-2-yl)piperidin-4-yl)acetonitrile], the pIC50 (in assay [1]; at JAK2) was above 7.30 in each case.
In the case of `O=c1[nH]ncc2nc(N3CCCCCC3)nc(Nc3ccc(CCCO)cc3)c12` [Example 308, 2-(azepan-1-yl)-4-((4-(3-hydroxypropyl)phenyl)amino)pyrimido[4,5-d]pyridazin-5(6H)-one], the pIC50 in assay [1] is above 7.30; at JAK2 it was above 8.00.
As to `N#CCC1CCN(c2nc(Nc3ccc(CCCO)cc3)c3c(=O)[nH]ncc3n2)CC1` [Example 309, 2-(1-(4-((4-(3-hydroxypropyl)phenyl)amino)-5-oxo-5,6-dihydropyrimido[4,5-d]pyridazin-2-yl)piperidin-4-yl) acetonitrile], the pIC50 (in assay [1]; on JAK2) was above 7.30 in each case.
As to `CC(C)(CO)Oc1ccc(Nc2nc(N3CCCCCC3)nc3cn[nH]c(=O)c23)cc1` [Example 314, 2-(azepan-1-yl)-4-((4-((1-hydroxy-2-methylpropan-2-yl)oxy)phenyl)amino) pyrimido[4,5-d]pyridazin-5(6H)-one], the results for the pIC50 (in assay [1]; at JAK2) were above 7.30 and above 8.00, respectively.

A word on the pIC50: it is −log10 of the IC50, conventionally taken in molar units.
